Some test systems named below: T47D; LXFL 529; XF498; M19-MEL; DLD-1; KM-20L2; HOP-18; SNB-78.
Assay in all cases: inhibition of tumour cell growth, NCI panel, 48 h

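These data come from cells grown in 96-well plates and exposed to compound for 48 hours at five concentrations. Abbreviation: GI50, concentration required for 50% inhibition of growth.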 The source made the active and inactive calls. Cut-off read from the data, not from the text of the source: active = GI50 up to about 1.1 µM and inactive = higher. Where only a bound is given, the exact number is not on record here.

Regarding `O=C(Nc1ccc2cc3ccccc3cc2c1)c1cc2c(cc1Cl)Sc1nccn1S2(=O)=O`, in the assay with T47D, the GI50 is 25.2 µM (inactive).

On to `O=C(O)c1ccc(Cc2ccccc2C(=O)O)cc1`, for which, in the assay on T47D, the GI50 was > 100 µM (inactive).

`COP(=O)(OC)c1ccc(NCc2cc(O)ccc2O)cc1`: in the assay on T47D, the GI50 was 28.8 µM (inactive).

As to `COc1ccc2c(CN3CCCCC3CO)cc3cc(OC)c(OC)cc3c2c1` (stereo not drawn), the GI50 in the assay on LXFL 529 was 4.9 µM (inactive); in the assay with XF498 it was 5.36 µM (inactive); in the assay with M19-MEL, 3.3 µM (inactive); with DLD-1, 6.18 µM (inactive); in the assay with KM-20L2, 3.64 µM (inactive); with HOP-18 it was 13.7 µM (inactive). The GI50 with SNB-78 was 6.93 µM (inactive).

As for `O=C(/C=C/c1ccccc1)CSc1nc2ccc(I)cc2c(=O)n1Cc1ccccc1`, in the assay on T47D, the GI50 was 9.16 µM (inactive).

For `Cc1ccc([C@@H]2[C@@H](C(=O)c3ccccn3)[C@H](c3ccc(C)cc3)C[C@](O)(c3ccccn3)[C@H]2C(=O)c2ccccn2)cc1`, the GI50 in the assay on T47D is 7.73 µM (inactive).

On to `O=C(CSc1nnc(Cc2ccccc2)o1)Nc1cccc(Cl)c1`, for which the GI50 with LXFL 529 was 44.1 µM (inactive); in the assay on M19-MEL, > 100 µM (inactive); with DLD-1, > 100 µM (inactive); in the assay with KM-20L2 it was > 100 µM (inactive); in the assay with HOP-18, 87.1 µM (inactive); with SNB-78, > 100 µM (inactive).

In the case of `C=CCCC(=O)C(=[N+]=[N-])C(=O)CCC(=O)c1ccccc1`, the GI50 in the assay on T47D was > 10 µM (inactive).

Turning to `COc1ccc2c(c1)[n+]([O-])c(-c1ccccc1)c(N)[n+]2[O-]`, the GI50 in the assay with LXFL 529 is 30.5 µM (inactive); with XF498, 35 µM (inactive); in the assay on M19-MEL, 39.2 µM (inactive); in the assay on DLD-1, 45.6 µM (inactive); in the assay with KM-20L2, 46 µM (inactive); with HOP-18 it was 33.6 µM (inactive). Also, the GI50 in the assay on SNB-78 was 44.8 µM (inactive).

In the case of `Cn1c(=O)cc(Nc2ccc(N)cc2)[nH]c1=O`, the GI50 in the assay on T47D is > 100 µM (inactive).

`CC(=O)O[C@H]1CC[C@@]2(C)C(=CC[C@@H]3[C@@H]2CC[C@](C)(c2nnc(C)o2)[C@H]3CC#N)C1`: the GI50 with T47D is > 100 µM (inactive).

Regarding `CCCn1c(=O)c(N2CCN(c3ccccc3)CC2)nc2sc3ccccc3c21`, in the assay with T47D, the GI50 is > 100 µM (inactive).

`O=C(/C=C/c1ccc(OCc2cccc(Cl)c2)cc1)NO`: the GI50 with T47D is 7.52 µM (inactive).

Take `Nc1ccc(-c2nnc(-c3c(Cl)c(Cl)c(Cl)c(Cl)c3-c3nc4cc(C(=O)c5ccccc5)ccc4[nH]3)o2)cc1`: the GI50 in the assay with T47D was 18.3 µM (inactive).

In the case of `COC1OC(CBr)C(OC(=O)c2ccccc2)C(O)C1Br` (stereo not drawn), the GI50 with LXFL 529 was > 100 µM (inactive); in the assay on XF498, > 10 µM (inactive); in the assay with M19-MEL, > 100 µM (inactive); in the assay with DLD-1 it was > 100 µM (inactive); in the assay on KM-20L2, > 100 µM (inactive); with HOP-18, > 100 µM (inactive). The GI50 in the assay with SNB-78 was > 100 µM (inactive).

For the molecule `CN(C(=N)c1ccccc1)c1ccccc1`, the GI50 with LXFL 529, in the assay on M19-MEL, with DLD-1, in the assay on KM-20L2, with HOP-18 and with SNB-78 was > 100 µM (inactive) throughout.

Take `Nc1ccc2ncc(Nc3ccc(Cl)c(Cl)c3)nc2c1`: the GI50 with LXFL 529 was 29.6 µM (inactive); in the assay with XF498 it was 32.2 µM (inactive); in the assay on M19-MEL, 21.7 µM (inactive); in the assay on DLD-1 it was 29.6 µM (inactive); in the assay on KM-20L2, 31.8 µM (inactive); with SNB-78, 26.9 µM (inactive).

As to `O=C(CSc1nnc(-c2ccc(/N=C\c3ccc(Cl)cc3)cc2)o1)Nc1ccccc1Cl`, the GI50 in the assay with LXFL 529 is > 100 µM (inactive); with XF498 it was > 100 µM (inactive); in the assay on M19-MEL, > 100 µM (inactive); in the assay on KM-20L2 it was > 100 µM (inactive); with HOP-18, > 100 µM (inactive); with SNB-78, 60.8 µM (inactive).

Take `CC1/C=C/C=C/CC/C=C/C=C/C=C/C=C/C(OC2OC(C)C(O)C(N)C2O)CC2OC(CC(O)C(O)CCC(O)CC(O)CC(O)CC(=O)OC(C)C(C)C1O)CC(O)C2C(=O)O` (stereo not drawn): the GI50 in the assay on T47D was 57.1 µM (inactive).

With `Cc1ccc(S(=O)(=O)NC(=O)NC(C(=O)O)C(C)O)cc1` (stereo not drawn), in the assay with T47D, the GI50 was > 100 µM (inactive).

For `COc1cc(C=O)cc(/C=N/c2ccccn2)c1O`, in the assay with T47D, the GI50 was 53.3 µM (inactive).

For the molecule `CC(C)(C)N1NC1C1NN1C(C)(C)C` (stereo not drawn), in the assay on T47D, the GI50 was > 100 µM (inactive).

Turning to `O=[N+]([O-])c1cc(C(F)(F)F)ccc1S(=O)(=O)N[C@@H]1CCCC[C@H]1NS(=O)(=O)c1ccc(C(F)(F)F)cc1[N+](=O)[O-]`, the GI50 in the assay on T47D was 3.13 µM (inactive).

Consider `CCOC(=O)/C=C(\C(=O)OCC)n1ccc(N)nc1=O`, for which the GI50 with T47D was > 100 µM (inactive).

Take `C=C(Br)C(C)(Br)CCC(Br)C(C)(C)Cl` (stereo not drawn): the GI50 in the assay on T47D is 20.5 µM (inactive).

As to `N#CCCN(CCCN(CCCN(C(=O)Nc1ccccc1)c1ccccc1)C(=O)Nc1ccccc1)C(=O)Nc1ccccc1`, the GI50 in the assay on T47D was > 8.75 µM (inactive).

In the case of `Cc1ccc2nc(N)[nH]c(=O)c2c1Sc1ccncc1`, the GI50 is > 59.7 µM (inactive) in the assay on LXFL 529; 22.8 µM (inactive) with XF498; > 76 µM (inactive) in the assay on M19-MEL; > 100 µM (inactive) in the assay with DLD-1; 10 µM (inactive) in the assay with KM-20L2; > 100 µM (inactive) with HOP-18. Also, the GI50 with SNB-78 was > 100 µM (inactive).

As to `CC(=O)c1cc(CC2Cc3cc4c(cc3C2=O)CCC4)cc2c1CCC2` (stereo not drawn), the GI50 with T47D is 15.1 µM (inactive).

Consider `CCOC(=O)c1nc2cc(C(F)(F)F)ccc2nc1Nc1ccc(Cl)c(Cl)c1`, for which the GI50 in the assay on T47D is > 100 µM (inactive).

For `Nc1nc2c(=O)c3ccccc3sc2s1`, in the assay with T47D, the GI50 is 69 µM (inactive).

For `CC1(c2ccccc2)CC(c2ccccc2)=NO1` (stereo not drawn), the GI50 in the assay with LXFL 529, with M19-MEL, in the assay on DLD-1, with HOP-18 and in the assay on SNB-78 was > 100 µM (inactive) in each case.

As for `COC(=O)[C@H](Cc1ccccc1)NC(=O)N1CCCN(C(=O)N[C@@H](Cc2ccccc2)C(=O)OC)CCCN(C(=O)N[C@@H](Cc2ccccc2)C(=O)OC)CCC1`, in the assay with T47D, the GI50 is 17.3 µM (inactive).

For `Cn1cc[n+](-c2cc(=O)n(C)c(=O)[n-]2)c1`, in the assay with T47D, the GI50 was 92.3 µM (inactive).

Take `CCC(Nc1ncnc2nc[nH]c12)C(=O)O` (stereo not drawn): in the assay with T47D, the GI50 is > 100 µM (inactive).

For the molecule `CCOC(=O)c1ccc(C(=O)/C(C(C)=O)=C2\CCCN2C)n1C`, the GI50 in the assay on T47D was 15.8 µM (inactive).

Consider `Cc1ccc(/C=C/c2n[nH]c(N/N=C/c3ccc4c(c3)OCO4)nc2=O)cc1`, for which the GI50 in the assay with T47D was 36.6 µM (inactive).

On to `O=c1nc(NC(c2ccccc2)(c2ccccc2)c2ccccc2)ccn1CCO`, for which the GI50 was 63.4 µM (inactive) in the assay on LXFL 529; 39.6 µM (inactive) in the assay with DLD-1; > 100 µM (inactive) in the assay on KM-20L2; > 100 µM (inactive) in the assay on HOP-18; > 100 µM (inactive) in the assay with SNB-78.

Turning to `c1ccc(CCCC2Sc3cccc4cccc(c34)S2)cc1`, the GI50 in the assay on LXFL 529 is > 100 µM (inactive); with XF498, > 100 µM (inactive); in the assay on M19-MEL, 79.1 µM (inactive); in the assay with DLD-1 it was > 100 µM (inactive); in the assay with KM-20L2, 54.7 µM (inactive); in the assay with SNB-78, > 100 µM (inactive).

For the molecule `C/C(=N\NC(=O)c1ccccc1O)c1c(O)cc(C)oc1=O`, the GI50 with LXFL 529 is 85.5 µM (inactive); in the assay with M19-MEL, 83.4 µM (inactive); with DLD-1, 49.8 µM (inactive); in the assay on KM-20L2 it was > 100 µM (inactive); in the assay on HOP-18, 27.2 µM (inactive); in the assay on SNB-78 it was > 100 µM (inactive).

Consider `Cc1cccc(C)c1N1C(=O)C(=O)C(c2nc3ccccc3s2)/C(=N/NC(=O)NN)C1=O` (stereo not drawn), for which the GI50 in the assay on LXFL 529, with XF498, in the assay with M19-MEL, with DLD-1, with KM-20L2 and in the assay on HOP-18 was > 100 µM (inactive) throughout. In addition, the GI50 in the assay with SNB-78 is > 100 µM (inactive).

On to `Cc1nn(-c2ccccc2)c(C)c1/C=N/N=C1\S/C(=C\c2ccc(Cl)cc2)C(=O)N1c1ccccc1`, for which, in the assay on T47D, the GI50 is > 100 µM (inactive).

`Cn1c(-c2ccc[se]2)ccc1-c1ccc(CO)[se]1`: the GI50 in the assay on T47D was 0.0405 µM (active).

Turning to `O=c1c2cc(Br)cc(Br)c2[nH]c(=S)n1-c1ccc(/N=N/c2ccc(O)c3cccnc23)cc1`, the GI50 with T47D was 38.2 µM (inactive).

Turning to `CC1(C)[C@@H]2CC[C@]1(C)[C@H](OC(=O)/C=C/c1ccccc1)C2`, in the assay with T47D, the GI50 was 15.9 µM (inactive).

Regarding `Cc1ccc([N+](=O)[O-])cc1S(=O)(=O)Nc1ccc(C2=NN(S(=O)(=O)c3cc([N+](=O)[O-])ccc3C)C(c3cccs3)C2)cc1` (stereo not drawn), the GI50 in the assay on T47D was 21.5 µM (inactive).

Take `O=C1C2=Cc3ccccc3OC2(O)Oc2cc(O)cc(O)c21` (stereo not drawn): in the assay with T47D, the GI50 is > 100 µM (inactive).

On to `COc1ccc(/N=N/c2c(C)c(C#N)c(=S)n(C3OC(CO)C(O)C(O)C3O)c2C)cc1` (stereo not drawn), for which the GI50 in the assay with T47D is 28.6 µM (inactive).

Turning to `COc1c2cc([N+](=O)[O-])cc1CN(C(=O)C(F)(F)F)CCOCCN(C(=O)C(F)(F)F)C2`, the GI50 in the assay on T47D is > 100 µM (inactive).

As to `COc1ccccc1C1(c2c(OC)c(=O)c2=O)SCCCS1`, the GI50 with T47D is 73.8 µM (inactive).

With `COC(=O)C/N=C1\NC(=S)N(Cc2ccc(OC)cc2)C12CCCC2`, in the assay with T47D, the GI50 is > 100 µM (inactive).

In the case of `CCOC(OCC)N1C(=O)C2(C(OCC)OCC)CC3C(OC(=O)N3N)c3cccc1c32` (stereo not drawn), the GI50 in the assay on T47D is > 100 µM (inactive).

Regarding `C#C[C@]1(O)CC[C@H]2[C@@H]3CCC4=C/C(=N/NC(=O)c5cccc6c(=O)c7ccccc7[nH]c56)CCC4[C@H]3CC[C@@]21C` (stereo partly drawn), the GI50 in the assay with T47D was 30.8 µM (inactive).

As for `CC12OC(=O)[C@@]3(O)CCC4C(C[C@H]5O[C@]56CC=CC(=O)[C@]46C)C45OC[C@H]6C(=O)O[C@@H]1C[C@@]6(C)[C@H](C4=O)C23O5` (stereo partly drawn), the GI50 in the assay on T47D is 1.36 µM (inactive).

As for `O=C(/C=C/C=C/c1ccccc1)CCc1ccccc1`, the GI50 with T47D is 53.3 µM (inactive).

Turning to `C#CCOC(=O)c1ccccc1OC(C)=O`, in the assay with T47D, the GI50 is > 100 µM (inactive).

Take `CC(C)C(N)=O` [ISOBUTYRAMIDE]: the GI50 in the assay on LXFL 529, in the assay on M19-MEL, in the assay with DLD-1, with HOP-18 and in the assay with SNB-78 was > 5000 µM (inactive) in each case.

(Values after ChEMBL document CHEMBL1201862, “PubChem BioAssay data set” (2004).)
